Reference: PubChem BioAssay AID1963840 (Molecular Pharmacology Branch, DTP, NCI, 2024)

System: 695427-040-R-J1-PDC complex spheroid viability
Test: Anticancer human tumor 695427-040-R-J1-PDC patient-derived colon adenocarcinoma cell line growth inhibition [POLQ]
Conditions: for IC50: curve of first compound; for viability, T/C: stronger effect = lower value; active means viability on the fitted dose curve at most 10% of control; inactive means the rest
Experimental: Multicellular complex tumor spheroid response to Polymerase (POL) inhibitors (novobiocin, ART-558, RP6685) in combination with a variety of drugs and investigational agents in selected tumor cell lines
The POL inhibitors (novobiocin, ART-558, and RP6685) were evaluated both individually and in combination with standard of care and investigational anticancer small molecules within a complex spheroid model of solid tumors. . Complex spheroids include a stromal component modeled by human endothelial cells (HUVEC) and fibroblasts modeled by human mesenchymal stem cells (MSCs). The concentration ranges selected for each drug and investigational agent were based upon clinically achievable concentrations if the clinical Cmax of the agent was known.
Compounds. The drugs and investigational agents: novobiocin (NSC847541), ART-558 (NSC835418), RP-6685 (NSC848927), peposertib (NSC802822), ceralasertib (NSC780249), elimusertib (NSC800525), camonsertib (NSC841442), AZD-1390 (NSC803789), olaparib (NSC753686), talazoparib (NSC767125), rucaparib (NSC756644), sotorasib (NSC818433), MRTX-1133 (NSC836407), SN-38 (NSC673596), topotecan (NSC609699), epotoside (NSC141540), doxorubicin (NSC123127), gemcitabine (NSC613327), 5-fluorouracil (NSC19893), paclitaxel (NSC125973), vemurafenib (NSC761431), MSA-2 (NSC828583), SN-011 (NSC837082), adavosertib (NSC754352), prexasertib (NSC758257), carboplatin (NSC241240) and oxaliplatin (NSC266046), were obtained from the National Cancer Institute (NCI) Developmental Therapeutics Program Chemical Repository (21). The FDA-approved anticancer drug set is available from the Developmental Therapeutics Program at https://dtp.cancer.gov/organization/dscb/obtaining/. […] The stock solutions were prepared in dimethyl sulfoxide (DMSO, Sigma-Aldrich, St. Louis, MO, cat. D2650), except for the platinum compounds which were prepared in saline (Quality Biological, Gaithersburg, MD, cat. 114-055-101), at 800-fold the tested concentration and stored at -70 degrees C prior to their use. All drugs and investigational agents were tested over a range starting from a high concentration at or near the clinical Cmax and decreasing in half-log increments. If the clinical Cmax for an agent had not been determined, the highest concentration tested was 10 microM, except for SN-38, which was tested at a high concentration of 1 microM.
Cell Culture. All cells were maintained in an incubator at 37 degrees C and 5% CO2 with 95% humidity. The PDC lines were cultured according to standard operating procedures established by the NCI PDMR (https://pdmr.cancer.gov). Table 3 of the manuscript, lists the cell lines along with the number of the three cell types plated to form the mct-spheroids and media for tumor cell growth. After thawing, all PDC lines, except 997537-175-T-J1-PDC and 415267-285-R-J2-PDC, were cultured in Matrigel-coated flasks prepared with a working solution of 1X Ham's F-12 nutrient mix, without supplementation (Thermo Fisher Scientific, cat. 11765054), 100 U/mL penicillin-streptomycin (Thermo Fisher Scientific, cat. 15140122), and 2.5% Matrigel (Corning Inc., Corning, NY, cat. 354248) for the first three passages. The two PDC lines 997537-175-T-J1-PDC and 415267-285-R-J2-PDC were cultured on uncoated flasks. The 857933-349-R-J2-PDC line was cultured in 6C/Colon 1B media containing advanced DMEM/F-12 (Thermo Fisher Scientific, cat. 12634028), 10 mM HEPES (Thermo Fisher Scientific, cat. 15630080), 1X GlutaMAX supplement (Thermo Fisher Scientific, cat. 35050061), 0.1 mg/mL primocin (InvivoGen, San Diego, CA, cat. ant-pm-2), 10% defined fetal bovine serum, heat inactivated (HyClone Laboratories Inc., Logan, UT, cat. SH30070.03HI), 50% L-WRN conditioned media (ATCC, cat. CRL-3276), 1.25 mM N-Acetyl-L-cysteine (Sigma-Aldrich, cat. A9165), 10 mM nicotinamide (Sigma-Aldrich, cat. N0636), 1X B-27 supplement (Thermo Fisher Scientific, cat. 17504044), 1X N-2 supplement (Thermo Fisher Scientific, cat. […]
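Further: spheroids exposed to compounds for seven days.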

CC(=O)O[C@H]1C(=O)[C@@]2(C)[C@H]([C@H](OC(=O)c3ccccc3)[C@]3(O)C[C@H](OC(=O)[C@H](O)[C@@H](NC(=O)c4ccccc4)c4ccccc4)C(C)=C1C3(C)C)[C@]1(OC(C)=O)CO[C@@H]1C[C@@H]2O + COC1C(OC(N)=O)C(O)C(Oc2ccc3c(O)c(NC(=O)c4ccc(O)c(CC=C(C)C)c4)c(=O)oc3c2C)OC1(C)C
> 3 µM: IC50 (second compound 0.0316 µM) | IC50 (second compound 0.1 µM) | IC50 (second compound 0.316 µM) | IC50 (second compound 1 µM) | IC50 (second compound 3.16 µM) | IC50 (second compound 10 µM)
inactive: viability, T/C (second compound 0.0316 µM, first compound 0.00949 µM) 96.4% | viability, T/C (second compound 0.0316 µM, first compound 0.03 µM) 85.9% | viability, T/C (second compound 0.0316 µM, first compound 0.0949 µM) 84.7% | viability, T/C (second compound 0.0316 µM, first compound 0.3 µM) 89.5% | viability, T/C (second compound 0.0316 µM, first compound 0.949 µM) 84.6% | viability, T/C (second compound 0.0316 µM, first compound 3 µM) 72.2% | viability, T/C (second compound 0.1 µM, first compound 0.00949 µM) 96.4% | viability, T/C (second compound 0.1 µM, first compound 0.03 µM) 98.1% | viability, T/C (second compound 0.1 µM, first compound 0.0949 µM) 94.1% | viability, T/C (second compound 0.1 µM, first compound 0.3 µM) 85.9% | viability, T/C (second compound 0.1 µM, first compound 0.949 µM) 89.8% | viability, T/C (second compound 0.1 µM, first compound 3 µM) 72.4% | viability, T/C (second compound 0.316 µM, first compound 0.00949 µM) 103% | viability, T/C (second compound 0.316 µM, first compound 0.03 µM) 91.4% | viability, T/C (second compound 0.316 µM, first compound 0.0949 µM) 91% | viability, T/C (second compound 0.316 µM, first compound 0.3 µM) 92.4% | viability, T/C (second compound 0.316 µM, first compound 0.949 µM) 88.1% | viability, T/C (second compound 0.316 µM, first compound 3 µM) 77.9% | viability, T/C (second compound 1 µM, first compound 0.00949 µM) 99.2% | viability, T/C (second compound 1 µM, first compound 0.03 µM) 93.3% | viability, T/C (second compound 1 µM, first compound 0.0949 µM) 86.1% | viability, T/C (second compound 1 µM, first compound 0.3 µM) 90.5% | viability, T/C (second compound 1 µM, first compound 0.949 µM) 88.5% | viability, T/C (second compound 1 µM, first compound 3 µM) 78.6% | viability, T/C (second compound 3.16 µM, first compound 0.00949 µM) 92.5% | viability, T/C (second compound 3.16 µM, first compound 0.03 µM) 97.9% | viability, T/C (second compound 3.16 µM, first compound 0.0949 µM) 86.7% | viability, T/C (second compound 3.16 µM, first compound 0.3 µM) 87.3% | viability, T/C (second compound 3.16 µM, first compound 0.949 µM) 87.6% | viability, T/C (second compound 3.16 µM, first compound 3 µM) 76.3% | viability, T/C (second compound 10 µM, first compound 0.00949 µM) 93.7% | viability, T/C (second compound 10 µM, first compound 0.03 µM) 97.2% | viability, T/C (second compound 10 µM, first compound 0.0949 µM) 91.7% | viability, T/C (second compound 10 µM, first compound 0.3 µM) 88.5% | viability, T/C (second compound 10 µM, first compound 0.949 µM) 87.6% | viability, T/C (second compound 10 µM, first compound 3 µM) 77%
